# Reference: patent US6642392B1 (priority 1997, dated 2003)
# Like-named read-outs stand apart in the source and are kept apart here.
# What was measured:
# Format in all cases: in vivo
# Phytophthora infestans = conditions: for Test D disease control rating: tomato late blight; for Test D disease control rating (100 = 100% disease control, 0 = no disease control): tomato seedlings sprayed to run-off, inoculated the following day, rating relative to controls, unmarked compounds (standard test rate)
# Botrytis cinerea = test: Test E: gray mold, preventive spray on cucumber seedlings; conditions: for Test E disease control rating: gray mold on cucumber; for Test E disease control rating (100 = 100% disease control, 0 = no disease control): cucumber seedlings sprayed to run-off, inoculated the following day, rating relative to controls, unmarked compounds (standard test rate)
# Method: The resulting test suspensions were then used in the following tests. Spraying these 200 ppm test suspensions to the point of run-off on the test plants is the equivalent of a rate of 500 g/ha.
# The test suspension was sprayed to the point of run-off on cucumber seedlings. The following day the seedlings were inoculated with a spore suspension of Botrytis cinerea (the causal agent of gray mold on many crops) and incubated in a saturated atmosphere at 20° C. for 48 h, and moved to a growth chamber at 20° C. for 5 days, after which disease ratings were made.
# (§1) Results for Tests A-E are given in Table A. In the table, a rating of 100 indicates 100% disease control and a rating of 0 indicates no disease control (relative to the controls). A dash (-) indicates no test results. ND indicates disease control not determined due to phytotoxicity.
# Pyricularia oryzae = conditions: for Test C disease control rating: rice blast; for Test C disease control rating (100 = 100% disease control, 0 = no disease control): rice seedlings sprayed to run-off, inoculated the following day, rating relative to controls, unmarked compounds (standard test rate)
# Puccinia recondita = test: Test B: wheat leaf rust, preventive spray on wheat seedlings; conditions: for Test B disease control rating: wheat leaf rust; for Test B disease control rating (100 = 100% disease control, 0 = no disease control): wheat seedlings sprayed to run-off, inoculated the following day, rating relative to controls, unmarked compounds (standard test rate)
# Method: (§2) The resulting test suspensions were then used in the following tests. […]
# The test suspension was sprayed to the point of run-off on wheat seedlings. The following day the seedlings were inoculated with a spore suspension of Puccinia recondita (the causal agent of wheat leaf rust) and incubated in a saturated atmosphere at 20° C. for 24 h, and then moved to a growth chamber at 20° C. for 6 days, after which disease ratings were made.
# as §1
# [1] = test system: Eiysiphe graminis f. sp. tritici; test: Test A: wheat powdery mildew, preventive spray on wheat seedlings; conditions: for Test A disease control rating: wheat powdery mildew; for Test A disease control rating (100 = 100% disease control, 0 = no disease control): wheat seedlings sprayed to run-off, inoculated the following day, rating relative to controls, unmarked compounds (standard test rate)
# Method: as §2
# The test suspension was sprayed to the point of run-off on wheat seedlings. The following day the seedlings were inoculated with a spore dust of Eiysiphe graminis f. sp. tritici, (the causal agent of wheat powdery mildew) and incubated in a growth chamber at 20° C. for 7 days, after which disease ratings were made.
# as §1
# [2] = 100 = 100% disease control, 0 = no control, unmarked entries (standard test concentration)
# [3] = 100 = 100% disease control, 0 = no control relative to controls, unmarked entries (standard test concentration)
Structure (SMILES),Test D disease control rating (Phytophthora infestans; [2]),Test E disease control rating (Botrytis cinerea; [2]),Test C disease control rating (Pyricularia oryzae; [2]),Test B disease control rating (Puccinia recondita; [2]),"Test A disease control rating [1, 3]",also measured
CC(COc1c(F)ccc(F)c1F)NC(=O)C(C#N)C(C)(C)C (mixture of isomers) [compound 186],0%,45%,100%,0%,0%,
"C[C@H](COc1cc(F)cc(F)c1F)NC(=O)C(C#N)C(C)(C)C (single isomer, unassigned) [168a]",0%,58%,74%,0%,76%,
CCC1(C(=O)NC(C)COc2ccc(F)cc2)C(C)C1(Cl)Cl (mixture of isomers) [80b],,,,,,Test D disease control rating (Phytophthora infestans; tested at 40 ppm): 0%; Test E disease control rating (Botrytis cinerea; tested at 40 ppm): 0%; Test C disease control rating (Pyricularia oryzae; tested at 40 ppm): 97%; Test B disease control rating (Puccinia recondita; tested at 40 ppm): 0%; Test A disease control rating ([1]; tested at 40 ppm): 83%
CCC1(C(=O)NC(C)COc2cc(Br)ccc2C#N)C(C)C1(Cl)Cl (stereo not drawn) [compound 246],,,,,,"Test D disease control rating (100 = 100% disease control, 0 = no disease control) (Phytophthora infestans): 0%; Test E disease control rating (100 = 100% disease control, 0 = no disease control) (Botrytis cinerea): 0%; Test C disease control rating (100 = 100% disease control, 0 = no disease control) (Pyricularia oryzae): 97%; Test B disease control rating (100 = 100% disease control, 0 = no disease control) (Puccinia recondita): 0%; Test A disease control rating (100 = 100% disease control, 0 = no disease control) [1]: 53%"
"C[C@H](COc1cc(F)ccc1F)NC(=O)C(C#N)C(C)(C)C=CF (single isomer, unassigned) [221a]",,,,,,"Test D disease control rating (100 = 100% disease control, 0 = no disease control) (Phytophthora infestans): 41%; Test E disease control rating (100 = 100% disease control, 0 = no disease control) (Botrytis cinerea): 0%; Test C disease control rating (100 = 100% disease control, 0 = no disease control) (Pyricularia oryzae): 100%; Test B disease control rating (100 = 100% disease control, 0 = no disease control) (Puccinia recondita): 0%; Test A disease control rating (100 = 100% disease control, 0 = no disease control) [1]: 0%"
CC(COc1cc(Cl)ccc1Cl)NC(=O)C(C#N)C(C)C(C)(C)C (mixture of isomers) [compound 62],,,,,,Test D disease control rating (Phytophthora infestans; tested at 40 ppm): 0%; Test E disease control rating (Botrytis cinerea; tested at 40 ppm): 0%; Test C disease control rating (Pyricularia oryzae; tested at 40 ppm): 52%; Test B disease control rating (Puccinia recondita; tested at 40 ppm): 0%; Test A disease control rating ([1]; tested at 40 ppm): 74%
CCC1(C(=O)NC(C)COc2c(C#N)cccc2C(F)(F)F)C(C)C1(Cl)Cl (mixture of isomers) [compound 134],30%,0%,0%,0%,0%,
CC(COc1ccccc1C(F)(F)F)NC(=O)C(C#N)C(C)(C)C (mixture of isomers) [17a],16%,0%,30%,67%,85%,
CC(C(C#N)C(=O)NCC=Cc1cccc(Br)c1)C(C)(C)C (mixture of isomers) [compound 76],,,,,,Test D disease control rating (Phytophthora infestans; tested at 40 ppm): 19%; Test E disease control rating (Botrytis cinerea; tested at 40 ppm): 0%; Test C disease control rating (Pyricularia oryzae; tested at 40 ppm): 0%; Test B disease control rating (Puccinia recondita; tested at 40 ppm): 0%; Test A disease control rating ([1]; tested at 40 ppm): 0%
CCC1(C(=O)NC(C)COn2c(C#N)cc(Cl)c2C)C(C)C1(Cl)Cl (mixture of isomers) [140a],0%,0%,90%,0%,29%,
"C[C@H](COc1cccc(C(F)(F)F)c1)NC(=O)C(C#N)C(C)(C)C (single isomer, unassigned) [18a]",0%,0%,91%,0%,0%,
CCC1(C(=O)NC(C)COc2c(F)cccc2F)C(C)C1(Cl)Cl (mixture of isomers) [105a],0%,55%,53%,0%,0%,
"C[C@H](COc1ccc(F)c(F)c1F)NC(=O)C(C#N)C(C)(C)C (single isomer, unassigned) [190a]",0%,6%,91%,0%,0%,
CCC1(C(=O)NCCCn2cccc2C#N)C(C)C1(Cl)Cl (stereo not drawn) [compound 149],0%,0%,53%,27%,30%,
C=CC(C)(C)C(C#N)C(=O)NC(C)COc1cc(F)ccc1F (mixture of isomers) [compound 214],23%,0%,100%,0%,0%,
CCC1(C(=O)NC(C)COc2ccc(F)cc2C#N)C(C)C1(Cl)Cl (mixture of isomers) [compound 129],0%,0%,74%,26%,38%,
C=CCc1cccc(C#N)c1OCC(C)NC(=O)C(C#N)C(C)C(C)(C)C (mixture of isomers) [compound 275],,,,,,"Test D disease control rating (100 = 100% disease control, 0 = no disease control) (Phytophthora infestans): 0%; Test E disease control rating (100 = 100% disease control, 0 = no disease control) (Botrytis cinerea): 99%; Test C disease control rating (100 = 100% disease control, 0 = no disease control) (Pyricularia oryzae): 53%; Test B disease control rating (100 = 100% disease control, 0 = no disease control) (Puccinia recondita): 0%; Test A disease control rating (100 = 100% disease control, 0 = no disease control) [1]: 0%"
CC(COc1cc(Br)ccc1C#N)NC(=O)C(C#N)C(C)(C)C (mixture of isomers) [compound 44],89%,0%,94%,0%,0%,
"C[C@H](COc1c(F)cc(F)cc1F)NC(=O)C(C#N)C(C)(C)C (single isomer, unassigned) [189a]",0%,6%,97%,0%,0%,
CC(COc1ccccc1SC(F)(F)C(F)F)NC(=O)C(C#N)C(C)(C)C (mixture of isomers) [compound 202],0%,0%,53%,0%,0%,
CC(COc1ccccc1C(C)(C)C)NC(=O)C(C#N)C(C)(C)C (mixture of isomers) [compound 23],48%,0%,97%,0%,0%,
"CC(COc1ccc(Cl)cc1)NC(=O)C(C#N)C(C)(C)C (single isomer, unassigned) [7b]",89%,47%,74%,0%,77%,
"C[C@H](COc1ccc(Cl)c(Cl)c1)NC(=O)C(C#N)C(C)(C)C (single isomer, unassigned) [181a]",56%,69%,86%,0%,0%,
"C[C@H](COc1cccc(F)c1F)NC(=O)C(C#N)C(C)(C)C (single isomer, unassigned) [26b]",81%,0%,100%,68%,38%,
CCC1(C(=O)NC(C)COc2ccc(F)cc2)C(C)C1(Cl)Cl (mixture of isomers) [80a],,,,,,Test D disease control rating (Phytophthora infestans; tested at 40 ppm): 20%; Test E disease control rating (Botrytis cinerea; tested at 40 ppm): 0%; Test C disease control rating (Pyricularia oryzae; tested at 40 ppm): 86%; Test B disease control rating (Puccinia recondita; tested at 40 ppm): 0%; Test A disease control rating ([1]; tested at 40 ppm): 0%
"C[C@H](COc1cc(F)ccc1Cl)NC(=O)C(C#N)C(C)(C)C (single isomer, unassigned) [191a]",25%,85%,100%,0%,0%,
CCC1(C(=O)NC(C)COc2c(F)cccc2C#N)C(C)C1(Cl)Cl (mixture of isomers) [compound 128],13%,0%,74%,0%,86%,
